{
  "source": "patent US10428043B2",
  "about": "“Green oxidation catalytic system” (TRUSTEES OF BOSTON UNIVERSITY, priority 2014, dated 2019)",
  "key": {"[1]": {"assay": "Cyclic voltammetry, redox potentials", "assay_type": "physicochemical", "from_the_text": "All reagents and solvents used were purchased from commercial sources and used as received unless otherwise noted. Prior to use, methanol (Pharmco-Aaper) was distilled over magnesium metal, dimethyl sulfoxide (Fisher Scientific) was distilled over calcium hydride, triethylamine was distilled over sodium metal and unstabilized dichloromethane (Fisher Scientific) was distilled over calcium hydride. Ferrocene was purified by sublimation for use as a reference for electrochemical analyses. All manipulations involving ferrous complexes were carried out in an inert atmosphere glovebox (M. Braun, Stratham, N.H.) with distilled and thoroughly degassed solvents. UV/Vis spectra were collected using a Hewlett Packard Spectrometer (8453). IR spectra were collected using a Thermo Nicolet AVATAR 330-FT-IR. Cyclic voltammetry experiments were performed using a Princeton Applied Research model 273 potentiostat with a glassy carbon working electrode, a silver wire reference electrode and a platinum wire counter electrode. Electron Paramagnetic Resonance (EPR) spectra were collected on a Bruker ESP-300E spectrometer operating at 9.460 GHz. NMR spectra were recorded at 25° C. using a Varian spectrometer operating at 400 MHz with all chemical shifts referenced to SiMe4. Iron concentrations were determined using a Varian AA240Z Atomic Absorption Spectrometer.\nCyclic voltammetry was performed inside an inert atmosphere (N2) box, with degassed DMSO as the solvent and tetra-N-butylammonium hexafluorophosphate as the supporting electrolyte (0.2M). The ferrocenium/ferrocene couple was used as an internal reference; reduction potential values were corrected by assigning the ferrocenium/ferrocene couple to 0.64 V versus NHE (Zanello, P. Inorganic Electrochemistry; The Royal Society of Chemistry: Cambridge, 2003). Chloride titration experiments were performed by collecting CV data after the addition of one and two 50 μL aliquots of 204 mM [NEt4][Cl] to 3.0 mL of 3.4 mM [Fe^II(N2O1py)(Cl)2]^− (concentration determined using flame atomic absorption spectroscopy) and correcting the potential with reference to the ferrocenium/ferrocene couple.\nIt should be noted that these redox potentials were determined in the absence of excess halide, and further CV studies will be performed in the presence of excess halide for all derivatives of the N2O1py system."}, "[2]": {"details": "estimated value for the functional group; cited from earlier work"}, "[3]": {"details": "20° C., stopped-flow with laser flash photolysis; cited from earlier work"}, "[4]": {"assay": "Low-temperature stopped-flow kinetics of adduct complexes with dioxygen", "details": "complex 0.94-1.1 mM, O2 5 mM, methanol, −85° C.", "experimental": "Stopped-flow Spectroscopy and Data analysis.\nKinetic studies of [Fe^II(N2O1)(α-KG)(CH3OH)]^− and [Fe^II(N2O1)(p-X-BF)(CH3OH)]^− adduct complexes with dioxygen. Low-temperature stopped flow studies of this reaction were performed.\nOrder dependence analysis.\nThe kinetic model was built by starting from simple two- and three-exponential processes.\nStoichiometry of the equations for the proposed model in FIG. 29: […]"}},
  "data": [
    {"smiles": "CN(C)CCN(C)CC(=O)[O-].[Cl-].[Cl-].[Cl-].[Fe+3]", "note": "[Fe^III N2O1, [Fe^III(N2O1)(Cl)3]]", "values": [
      {"measurement": "E1/2", "setting": "[1]; no added halide, in mV", "result": "+136"}
    ]},
    {"smiles": "CN(CC(=O)O)Cc1ccccn1", "note": "[[H2N2O1py]^+, 2-(methyl(pyridine-1-ium-2-ylmethyl)ammonio)acetate]", "values": [
      {"measurement": "estimated pKa, carboxylic acid", "setting": "[2]", "result": "~4.8"},
      {"measurement": "estimated pKa, pyridinium", "setting": "[2]", "result": "~5.2"},
      {"measurement": "estimated pKa, tertiary ammonium", "setting": "[2]", "result": "~10"}
    ]},
    {"smiles": "N#C[N-]C#N.N#C[N-]C#N.N#C[N-]C#N.N#C[N-]C#N.N#C[N-]C#N.[Cl-].[Fe+2]", "note": "[[Fe^II(dca)5Cl]^4−]", "values": [
      {"measurement": "second order rate constant k of NO binding", "setting": "[3]", "result": "1.7e+07", "unit": "M⁻¹ s⁻¹"}
    ]},
    {"smiles": "CN(C)CCN(C)CC(=O)[O-].CO.Nc1ccc(C(=O)C(=O)[O-])cc1.[Fe+2]", "note": "[compound 26, [Fe^II(N2O1)(p-NH2-BF)(CH3OH)]]", "values": [
      {"measurement": "k′1", "setting": "[4]", "result": "8.5 ± 1.8", "unit": "s⁻¹"},
      {"measurement": "k′2", "setting": "[4]", "result": "2700 ± 300", "unit": "M⁻¹ s⁻¹"},
      {"measurement": "k′3", "setting": "[4]", "result": "1.0 ± 0.2", "unit": "s⁻¹"},
      {"measurement": "k′4 (k′4obs)", "setting": "[4]", "result": "1.7 ± 0.4", "unit": "s⁻¹"}
    ]},
    {"smiles": "C#Cc1ccnc(CN(C)CC(=O)[O-])c1.CC[NH+](CC)CC.CO.[Cl-].[Cl-].[Fe+2]", "note": "[[Fe^II(N2O1py-alkyne)], [C6H16N][Fe^II(N2O1-alkyne)(MeOH)(Cl)2]]", "values": [
      {"measurement": "E1/2", "setting": "[1]; DMSO, glassy carbon working electrode, absence of excess halide", "result": 270, "unit": "mV"}
    ]},
    {"smiles": "O.O.O.O.O.O.[Fe+2]", "note": "[[Fe(H2O)6)]^2+]", "values": [
      {"measurement": "second order rate constant k of NO binding", "setting": "[3]", "result": "1.42e+06", "unit": "M⁻¹ s⁻¹"}
    ]}
  ]
}
